Source: patent publication US20060069132A1, “Azolecarboxamide herbicides” (priority 2004, published 2006)

Experiments:
barnyardgrass [1] = assay: Test A pre-/postemergence herbicide test; assay type: in vivo, Echinochloa crus-galli
Procedure, shortened: (§1)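 Sandy loam soil given preemergence directed spray; plants at 2 to 10 cm, one- to two-leaf stage, sprayed to runoff postemergence, compounds in non-phytotoxic solvent with surfactant. Injury rated visually versus untreated controls after about ten greenhouse days, 0 (no effect) to 100 (complete control); dash means not tested.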

large crabgrass [2] = assay: Test A pre-/postemergence herbicide test; assay type: in vivo, Digitaria sanguinalis
Procedure, shortened: as §1

giant foxtail [3] = assay: Test A pre-/postemergence herbicide test; assay type: in vivo, Setaria faberi
Procedure, shortened: as §1

morningglory [4] = assay: Test A pre-/postemergence herbicide test; assay type: in vivo, Ipomoea spp.
Procedure, shortened: as §1

redroot pigweed = assay: Test A pre-/postemergence herbicide test; assay type: in vivo, Amaranthus retroflexus
Procedure, shortened: as §1

velvetleaf [5] = assay: Test A pre-/postemergence herbicide test; assay type: in vivo, Abutilon theophrasti
Procedure, shortened: as §1

barnyardgrass [6] = assay: Test B pre-/postemergence herbicide test; assay type: in vivo, Echinochloa crus-galli; details: for Barnyardgrass plant response rating: postemergence
Procedure, shortened: (§2)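 Pre: seeds sown, then sprayed. Post: 1–4-leaf plants (2–18 cm) sprayed at the same time. Paddy: flooded, treated at 2-leaf stage. Formulation: non-phytotoxic solvent with surfactant. Greenhouse 13–15 days; visual 0–100 score relative to controls.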

Surinam grass = assay: Test B pre-/postemergence herbicide test; assay type: in vivo, Urochloa decumbens; details: for Surinam Grass plant response rating: postemergence
Procedure, shortened: (§3)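 Formulation: non-phytotoxic solvent mix with surfactant. Timing: preemergence on seed and postemergence on 2–18 cm plants, applied concurrently. Readout after 13–15 d greenhouse: visual 0–100 control rating against controls.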

cocklebur = assay: Test B pre-/postemergence herbicide test; assay type: in vivo, Xanthium strumarium; details: for Cocklebur plant response rating: postemergence
Procedure, shortened: as §2

corn = assay: Test B pre-/postemergence herbicide test; assay type: in vivo, Zea mays; details: for Corn plant response rating: postemergence
Procedure, shortened: as §3

large crabgrass [7] = assay: Test B pre-/postemergence herbicide test; assay type: in vivo, Digitaria sanguinalis; details: for Crabgrass, Large plant response rating: postemergence
Procedure, shortened: as §3

giant foxtail [8] = assay: Test B pre-/postemergence herbicide test; assay type: in vivo, Setaria faberi; details: for Foxtail, Giant plant response rating: postemergence
Procedure, shortened: as §3

lambsquarters = assay: Test B pre-/postemergence herbicide test; assay type: in vivo, Chenopodium album; details: for Lambsquarters plant response rating: postemergence
Procedure, shortened: as §3

morningglory [9] = assay: Test B pre-/postemergence herbicide test; assay type: in vivo, Ipomoea coccinea; details: for Morningglory plant response rating: postemergence
Procedure, shortened: as §2

pigweed = assay: Test B pre-/postemergence herbicide test; assay type: in vivo, Amaranthus retroflexus; details: for Pigweed plant response rating: postemergence
Procedure, shortened: as §3

rice [10] = assay: Test B pre-/postemergence herbicide test; assay type: in vivo, Oryza sativa; details: 0 = no effect, 100 = complete control, preemergence
Procedure, shortened: as §3

velvetleaf [11] = assay: Test B pre-/postemergence herbicide test; assay type: in vivo, Abutilon theophrasti; details: for Velvetleaf plant response rating: postemergence
Procedure, shortened: as §3

blackgrass = assay: Test B postemergence herbicide test; assay type: in vivo, Alopecurus myosuroides; details: postemergence
Procedure, shortened: (§4)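 Read-out: visual comparison with controls, scored 0 to 100, where 100 means complete control and 0 no effect. Formulated chemicals were applied postemergence to plants 2–18 cm tall (1- to 4-leaf), or to flooded-paddy plants at the 2-leaf stage, then held 13 to 15 days under glass.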

wheat = assay: Test B postemergence herbicide test; assay type: in vivo, Triticum aestivum; set-up: key to Wheat plant response rating: 0 = no effect, 100 = complete control; details: postemergence
Procedure, shortened: (§5)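 Each value is a visual 0–100 response rating taken against controls 13 to 15 days after treatment in the greenhouse. Plants received formulated chemical postemergence at the 1- to 4-leaf stage or, in flooded paddy, at the 2-leaf stage.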

wild oat = assay: Test B postemergence herbicide test; assay type: in vivo, Avena fatua; details: postemergence
Procedure, shortened: as §5

rice [12] = assay: Test B flooded paddy test; assay type: in vivo, Oryza sativa; details: 1000 g ai/ha, scale 0 to 100 (0 no effect, 100 complete control)
Procedure, shortened: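 Scale 0–100: zero equals no visible effect, 100 complete control, judged by eye relative to controls. Timing: 13 to 15 days in greenhouse post-treatment. Growth stage at spraying: two leaves (paddy) or one to four leaves, 2–18 cm (postemergence).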

[13] = system: small flower umbrella sedge; assay: Test B flooded paddy test; assay type: in vivo, Cyperus difformis; details: 1000 g ai/ha, scale 0 to 100 (0 no effect, 100 complete control)
Procedure, shortened: as §4

ducksalad = assay: Test B flooded paddy test; assay type: in vivo, Heteranthera limosa; details: 1000 g ai/ha, scale 0 to 100 (0 no effect, 100 complete control)
Procedure, shortened: as §4

barnyardgrass [14] = assay: Test B flooded paddy test; assay type: in vivo, Echinochloa crus-galli; details: 1000 g ai/ha, scale 0 to 100 (0 no effect, 100 complete control)
Procedure, shortened: as §4

[15] = Postemergence, 500 g ai/ha, 0 to 100 scale, 0 no effect, 100 complete control
[16] = Postemergence, 2000 g ai/ha, 0 to 100 scale, 0 no effect, 100 complete control
[17] = Preemergence, 2000 g ai/ha, visual rating, 0 to 100 scale (0 no effect, 100 complete control)
[18] = preemergence, 500 g ai/ha, visual injury, 0 to 100 scale (0 no effect, 100 complete control)
[19] = 125 g ai/ha, 0 = no effect, 100 = complete control, preemergence
[20] = 125 g ai/ha, visual rating, scale 0 (no effect) to 100 (complete control)
[21] = 500 g ai/ha, visual rating, 0 = no effect, 100 = complete control, preemergence
[22] = 500 g ai/ha, scale 0 to 100, 0 is no effect, 100 is complete control

CCNC(=O)c1cncc(NC(=O)c2cc(C(C)(C)C)nn2CC)n1 [Compound 288]
Barnyardgrass plant response rating (barnyardgrass [1]; [15]): 5 | Plant response rating, Barnyardgrass (barnyardgrass [1]; [16]): 65 | Barnyardgrass plant response rating (barnyardgrass [1]; [17]): 75 | Barnyardgrass plant response rating (barnyardgrass [1]; [18]): 20 | Crabgrass, Large plant response rating (large crabgrass [2]; [15]): 0 | Plant response rating, Crabgrass, Large (large crabgrass [2]; [16]): 15 | Crabgrass, Large plant response rating (large crabgrass [2]; [17]): 10 | Crabgrass, Large plant response rating (large crabgrass [2]; [18]): 0 | Foxtail, Giant plant response rating (giant foxtail [3]; [15]): 0 | Plant response rating, Foxtail, Giant (giant foxtail [3]; [16]): 10 | Foxtail, Giant plant response rating (giant foxtail [3]; [17]): 75 | Foxtail, Giant plant response rating (giant foxtail [3]; [18]): 15 | Morningglory plant response rating (morningglory [4]; [15]): 20 | Plant response rating, Morningglory (morningglory [4]; [16]): 20 | Morningglory plant response rating (morningglory [4]; [17]): 30 | Morningglory plant response rating (morningglory [4]; [18]): 5 | Pigweed plant response rating (redroot pigweed; [15]): 20 | Plant response rating, Pigweed (redroot pigweed; [16]): 40 | Pigweed plant response rating (redroot pigweed; [17]): 70 | Pigweed plant response rating (redroot pigweed; [18]): 25 | Velvetleaf plant response rating (velvetleaf [5]; [15]): 20 | Plant response rating, Velvetleaf (velvetleaf [5]; [16]): 20 | Velvetleaf plant response rating (velvetleaf [5]; [17]): 40 | Velvetleaf plant response rating (velvetleaf [5]; [18]): 10 | Barnyardgrass plant response rating (0 to 100 scale) (barnyardgrass [6]; [19]): 0 | Barnyardgrass plant response rating (barnyardgrass [6]; [20]): 0 | Plant response rating, Barnyardgrass (barnyardgrass [6]; [21]): 70 | Barnyardgrass plant response rating (barnyardgrass [6]; [22]): 0 | Surinam Grass plant response rating (0 to 100 scale) (Surinam grass; [19]): 0 | Surinam Grass plant response rating (Surinam grass; [20]): 0 | Plant response rating, Surinam Grass (Surinam grass; [21]): 0 | Surinam Grass plant response rating (Surinam grass; [22]): 0 | Cocklebur plant response rating (0 to 100 scale) (cocklebur; [19]): 0 | Cocklebur plant response rating (cocklebur; [20]): 0 | Plant response rating, Cocklebur (cocklebur; [21]): 0 | Cocklebur plant response rating (cocklebur; [22]): 0 | Corn plant response rating (0 to 100 scale) (corn; [19]): 0 | Corn plant response rating (corn; [20]): 0 | Plant response rating, Corn (corn; [21]): 0 | Corn plant response rating (corn; [22]): 0 | Crabgrass, Large plant response rating (0 to 100 scale) (large crabgrass [7]; [19]): 0 | Crabgrass, Large plant response rating (large crabgrass [7]; [20]): 0 | Plant response rating, Crabgrass, Large (large crabgrass [7]; [21]): 0 | Crabgrass, Large plant response rating (large crabgrass [7]; [22]): 0 | Foxtail, Giant plant response rating (0 to 100 scale) (giant foxtail [8]; [19]): 0 | Foxtail, Giant plant response rating (giant foxtail [8]; [20]): 0 | Plant response rating, Foxtail, Giant (giant foxtail [8]; [21]): 10 | Foxtail, Giant plant response rating (giant foxtail [8]; [22]): 30 | Lambsquarters plant response rating (0 to 100 scale) (lambsquarters; [19]): 0 | Lambsquarters plant response rating (lambsquarters; [20]): 0 | Plant response rating, Lambsquarters (lambsquarters; [21]): 90 | Lambsquarters plant response rating (lambsquarters; [22]): 30 | Morningglory plant response rating (0 to 100 scale) (morningglory [9]; [19]): 0 | Morningglory plant response rating (morningglory [9]; [20]): 0 | Plant response rating, Morningglory (morningglory [9]; [21]): 0 | Morningglory plant response rating (morningglory [9]; [22]): 0 | Pigweed plant response rating (0 to 100 scale) (pigweed; [19]): 0 | Pigweed plant response rating (pigweed; [20]): 10 | Plant response rating, Pigweed (pigweed; [21]): 90 | Pigweed plant response rating (pigweed; [22]): 20 | Rice plant response rating (0 to 100 scale) (rice [10]; 125 g ai/ha): 0 | Plant response rating, Rice (rice [10]; 500 g ai/ha, visual rating): 70 | Velvetleaf plant response rating (velvetleaf [11]; [20]): 10 | Plant response rating, Velvetleaf (velvetleaf [11]; [21]): 0 | Velvetleaf plant response rating (velvetleaf [11]; [22]): 20 | Blackgrass plant response rating (blackgrass; [20]): 20 | Blackgrass plant response rating (blackgrass; [22]): 20 | Wheat plant response rating (wheat; [20]): 20 | Wheat plant response rating (wheat; [22]): 30 | Oat, Wild plant response rating (wild oat; [20]): 20 | Oat, Wild plant response rating (wild oat; [22]): 40 | Rice plant response rating (rice [12]): 0 | Sedge, Umbrella plant response rating [13]: 60 | Ducksalad plant response rating (ducksalad): 0 | Barnyardgrass plant response rating (barnyardgrass [14]): 0
